Target: T1, Pancreatic alpha-amylase (Sus scrofa, UniProt P00690)
T1 sequence (P00690 whole entry): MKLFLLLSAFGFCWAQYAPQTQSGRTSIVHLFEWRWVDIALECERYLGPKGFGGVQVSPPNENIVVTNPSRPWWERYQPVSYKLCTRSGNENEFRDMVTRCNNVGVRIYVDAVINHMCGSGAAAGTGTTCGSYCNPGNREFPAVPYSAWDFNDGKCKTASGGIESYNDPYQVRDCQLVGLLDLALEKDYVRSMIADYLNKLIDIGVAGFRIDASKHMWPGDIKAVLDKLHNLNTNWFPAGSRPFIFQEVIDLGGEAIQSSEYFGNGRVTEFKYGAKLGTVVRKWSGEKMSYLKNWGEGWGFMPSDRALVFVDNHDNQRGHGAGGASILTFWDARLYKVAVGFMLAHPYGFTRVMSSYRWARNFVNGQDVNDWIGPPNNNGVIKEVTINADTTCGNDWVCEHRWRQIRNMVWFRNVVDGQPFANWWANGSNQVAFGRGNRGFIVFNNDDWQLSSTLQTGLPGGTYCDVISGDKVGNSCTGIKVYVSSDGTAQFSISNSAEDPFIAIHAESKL
Assay: Inhibition of pig pancreatic alpha-amylase by Bernfeld method

CCOc1ccc2nc(N=C(CC(=O)c3ccc(Cl)cc3)SC)sc2c1
IC50: 17.9 µM

CSC(CC(=O)c1ccc(Br)cc1)=Nc1nc2ccccc2s1
IC50: 17.8 µM

From BindingDB's records for doi:10.1016/j.ejmech.2012.11.020 (North Maharashtra University, 2013)
